In a melting point compilation (Tetko et al.; mined from patent text by program, amines drawn as free bases though some values may be those of a salt):

Row | Compound | melting point
1 | Cc1ccc(C2CC(n3ccnc3)c3ccccc3N2)cc1 (stereo not drawn) | 152 to 154 °C
2 | CCN(CC)C(=O)c1cc(-c2ccccc2)ccc1-c1ccccc1 | 128 to 130 °C
3 | CC1CCC2(OC1)OC1CC3C4CCC5CC(OCCO)CCC5(C)C4CCC3(C)C1C2C (stereo not drawn) | 207 to 208 °C
4 | FC(F)(F)c1ccc(-c2cc(C(F)(F)F)n3cnc(-c4ccncc4)c3n2)cc1 | 240 °C
5 | O=C(Nc1ccc(-n2nc(C(F)(F)F)cc2C(F)(F)F)cc1)c1cccc(Cl)c1F | 113 to 116 °C
6 | CC12C=CC(O)CC1CCC1C2CCC2(C)C(C#N)CCC12 (stereo not drawn) | 129 to 133 °C
7 | COc1nc2ncnn2c(N2CCC(C)CC2)c1-c1ccc(C)cc1F | 201 °C
8 | CC(=O)N(C1=C(NC(C)C)C(=O)c2c(cnn2C)C1=O)C(C)C | 123 to 126 °C
9 | CC(=O)C(C(=O)c1ccccc1)N(C)C (stereo not drawn) | 72 to 74 °C
10 | C=CCNc1nc(NC(=O)NC(C)(C)C)c2cc([N+](=O)[O-])ccc2n1 | 200 to 201 °C
11 | C#CCOc1ccc(S(=O)(=O)C2(C(=O)O)CCN(Cc3ccc(Cl)cc3)CC2)cc1 | 205 °C
12 | CSCC12CCC(=CF)C=C1CCC1C3CCC(=O)C3(C)CCC12 (stereo not drawn) | 146 to 147 °C
13 | O=C(NCCc1ccc(CN2CCCC2)cc1)N1CCC(c2ccc(Cl)cc2)CC1 | 116 to 117 °C
14 | CN(C)c1ccc(C=CC(O)c2cnc3sc4c(n23)CCCCC4)cc1 (stereo not drawn) | 168 to 170 °C
15 | CN(C)c1ncnc2c(O)cccc12 | 104 to 105 °C
16 | O=S(=O)(CC(Br)(CBr)c1cccc(Cl)n1)C1CC1 (stereo not drawn) | 75 °C
17 | CC(=O)C(C#N)=Cc1ccccc1 | 83 to 84 °C
18 | COc1ccc(C(=O)c2cc3ccccc3o2)cc1 | 93 to 94 °C
19 | Cc1ccc(C=CC(=O)c2ccccc2)o1 | 57 to 61 °C
20 | Cc1c(-c2ccccc2)nn(N)c1OCCN1CCOCC1 | 96 °C

Row | Compound | melting point
21 | Cc1cc(C(C)(C)C)c(O)c(P(=O)(c2ccccc2)C2c3ccccc3-c3ccccc32)c1 (stereo not drawn) | 237 to 240 °C
22 | CS(=O)c1nc(-c2ccccc2)c(-c2ccccc2)s1 (stereo not drawn) | 102 to 103 °C
23 | CC(=O)OC1CSC(OC(=N)C(Cl)(Cl)Cl)C(OC(C)=O)C1OC(C)=O (stereo not drawn) | 110 °C
24 | O=c1c2ccccc2nnn1CCCN1CC=C(c2c[nH]c3ccccc23)CC1 | 189 °C
25 | COc1ccc(CCC(N)CC(=O)O)cc1 (stereo not drawn) | 180 to 184 °C
26 | C=CC1(O)CCC2C3CCC4=CC(=O)CCC4C3CCC21CC (stereo not drawn) | 108 to 111 °C
27 | O=C(Cc1ccc2c(c1)OCO2)Nc1cc(C2CC2)n[nH]1 | 174 to 176 °C
28 | O=[N+]([O-])c1ccc(C2SCCCS2)c(CO)c1 | 130 to 131 °C
29 | Cc1ccc(-c2ccccc2C(N)=O)cc1 | 128 to 130 °C
30 | NC(=O)c1nc2ccccc2cc1OCCCN1CCN(c2cccc3sccc23)CC1 | 153 to 154 °C
31 | COc1ncccc1-c1nc2c(N[C@H]3[C@@H](C(N)=O)[C@@H]4C=C[C@H]3C4)c(Br)cnc2[nH]1 | 201 °C
32 | CNC(=O)c1ccc(C(C)(C)CCNC(=O)NCc2ccc(N)nc2)nc1Nc1ccccc1 | 134 °C
33 | COc1ccc2c(c1)C(OC)(c1ccccc1)OC21CCN(Cc2ccccc2)CC1 (stereo not drawn) | 129 to 133 °C
34 | CCCCCCCCCCCCCCCCCCOc1cc(O)cc(N(CC(=O)O)CC(=O)O)c1 | 143 to 146 °C
35 | CC1(C(Cl)(Cl)Cl)C=CC(=O)C=C1 | 103 °C
36 | COc1cc(Nc2c(C#N)cnc3c2C=C2N=CN=C2C3)cc(OC)c1OC | > 260 °C
37 | CN1CCC(O)(c2ccccc2Cc2ccccc2)C1 (stereo not drawn) | 108 to 109 °C
38 | Nc1sccc1C(=O)c1ccccc1 | 150 to 152 °C
39 | CCC(C(N)=O)N(Cc1ccc2nc(NCCCN3CCOCC3)n(Cc3nc(C)ccc3OC)c2c1)c1cc(C)cc(C)c1 (stereo not drawn) | 130 °C
40 | Oc1ccc2[nH]cc(C3=CCN(Cc4ccccc4)CC3)c2c1 | 223 to 227 °C

Row | Compound | melting point
41 | O=C(O)c1ccc(OC23CC4CC(CC(C4)C2)C3)cc1 | 223 to 226 °C
42 | O=C(O)CC1CCC2(CC1)OCCO2 | 110 to 113 °C
43 | CC(C)(C)OC(=O)NC1CCN(CC(=O)O)C1=O (stereo not drawn) | 62 to 64 °C
44 | CCC(Oc1c(C)c(F)cc(F)c1F)C1=NCCN1 (stereo not drawn) | 99 to 101 °C
45 | C=C1CCC2(c3c[nH]cn3)Cc3ccccc3C12 (stereo not drawn) | 167 to 174 °C
46 | C=C(CCC(C)C1CCC2(C)C3CCC4C(C)(C)C(O)CCC45CC35CCC12C)C(C)C (stereo not drawn) | 123 to 124 °C
47 | CC(C)C[C@H](NCc1ccc(OC(C)(C)C)cc1)C(=O)N1CCN(C(c2ccc(F)cc2)c2ccc(F)cc2)CC1 | 56 to 61 °C
48 | COc1cccc(-c2nc3ccc(OC)cc3s2)c1 | 155 to 157 °C
49 | Cc1cccc(CON2C(C)(C)CC(O)CC2(C)C)c1 | 66 to 67 °C
50 | CC(=O)CNC1(c2ccc(OCCCN(C)C3CCCCC3)cc2)Sc2ccccc2N(C)C1=O (stereo not drawn) | 119 to 120 °C
51 | COc1cc(OC)c(-c2ccc(N(C)CCN(C)c3ccc(-c4c(OC)cc(OC)cc4OC)nc3)cn2)c(OC)c1 | 264 to 265 °C
52 | CC(C)(C)C1=CC(O)(c2ccc(F)cc2)C=C(C(C)(C)C)C1=O | 123 to 125 °C
53 | CCCCCCCCCCCCCCCCCCSC(C)CCO (stereo not drawn) | 35 to 38 °C
54 | CCc1c(C=O)c2ccc(C(N)=O)cc2n1Cc1ccccc1Cl | 260 to 261 °C
55 | Cc1cc2c(c(C)c1S(=O)(=O)C[N+](=O)[O-])CCCC(C)(C)O2 | 100 to 101 °C
56 | CCOC(=O)C(=NOC1CCCCO1)c1csc(NC(c2ccccc2)(c2ccccc2)c2ccccc2)n1 (stereo not drawn) | 184 °C
57 | CN(CC1CO1)S(=O)(=O)C(F)(F)C(F)(F)C(F)(F)C(F)(F)S(=O)(=O)N(C)CC1CO1 (stereo not drawn) | 77 to 79 °C
58 | CN1Cc2ccc(COc3cccc4c3CN(C3CCC(=O)NC3=O)C4=O)cc2C1 (stereo not drawn) | 262 to 264 °C
59 | CC(C)(C)c1ccc(OP(Oc2ccc(C(C)(C)C)cc2C(C)(C)C)c2cccc3ccccc23)c(C(C)(C)C)c1 | 125 to 127 °C
60 | COC(=O)Cc1ccc(OCCNC(=O)C2Cc3ccccc3N2S(=O)(=O)c2ccc(-c3ccc(F)cc3OC)cc2)cc1 (stereo not drawn) | 70 to 75 °C

Second part, the molecule after the results:

Row | melting point | Compound
61 | 196 to 208 °C | Cc1ccc2cccc(OCc3c(Cl)ccc(N(C)C(=O)CNC(=O)C=Cc4ccc(-c5nnn[nH]5)cc4)c3Cl)c2n1
62 | 130 to 134 °C | COC(=O)c1c(S(=O)C(C)C)c2cc(OC)ccc2n1C (stereo not drawn)
63 | 119 °C | Cc1nc(-c2ccc(N3CC(CN4CCN(C(CC(=O)OCc5ccccc5)C(=O)OCc5ccccc5)CC4)OC3=O)cc2)no1 (stereo not drawn)
64 | 62 to 63 °C | CCCCCCCCCCCCCCCCCCOc1cc(C(=O)OC)cc(N(CC(=O)OCc2ccccc2)CC(=O)OCc2ccccc2)c1
65 | 110 to 112 °C | CCOC(=O)C=C1CCC(C#N)(c2ccc(OC)c3c2OCCO3)CC1 (stereo not drawn)
66 | 109 to 110 °C | CC(=O)Cc1ccc(-c2noc3cc(Cl)ccc23)cc1
67 | 226 to 228 °C | COc1ccc(-c2nc3ccc(OC(F)(F)F)cc3[nH]2)cc1OCc1ccccc1
68 | 260 to 261 °C | O=C1CCC2=C(CCc3cc(Cl)c(Cl)cc32)N1
69 | 155 to 156 °C | CCOC(=O)C(C)(C)Sc1ncnc2c(O)n(C)nc12
70 | 152 to 153 °C | CCOC(=O)CSc1c(C(=O)OCC)[nH]c2cc(Cl)cc(Cl)c12
71 | 156 to 157 °C | CCC(CC)C(=O)C1=C(O)c2cc(OC)c(OC)c(OC)c2C(O)(c2ccc(OC)c(OC)c2)C1C(=O)OC (stereo not drawn)
72 | 94 to 98 °C | COC(=O)[C@H](CCSC)NC(=O)c1ccc(NC(Cn2ccnc2)c2ccc(F)cc2)cc1-c1ccc(F)cc1 (stereo partly drawn)
73 | 99 to 103 °C | CCC(=O)OCC(=O)C1(OC(C)=O)CCC2C3CC(C)C4=CC(=O)CCC4(C)C3C(O)CC21C (stereo not drawn)
74 | 94 to 96 °C | CCOC(=O)c1oc2cccc(OCC(C)O)c2c1C (stereo not drawn)
75 | 153 to 155 °C | CCOC(=O)c1[nH]c(=O)c(CC(C)C)[n+]([O-])c1OC
76 | > 320 °C | COc1ccc(C=Cc2nc3c([nH]2)c(=O)n(C)c(=O)n3C)cc1
77 | 115 to 116 °C | COc1cc(-c2nn(C)c(C(F)(F)F)c2Cl)c(F)cc1[N+](=O)[O-]
78 | 120 to 123 °C | Cc1nn(-c2cc(Oc3ccc([N+](=O)[O-])cn3)c(Cl)cc2F)c(=O)n1C(F)F
79 | 193 °C | COc1cc(C(=O)c2cccnc2)cc([N+](=O)[O-])c1O

Row | melting point | Compound
80 | 220 to 221 °C | CCOc1ccc2c(S(=O)(=O)c3ccc(O)cc3)c(C(C)C)cn2c1
81 | 194 to 195 °C | COc1cc(C2C(C(=O)O)c3ccccc3C(=O)N2C)cc(OC)c1OC (stereo not drawn)
82 | 152 °C | Cc1ccc2c(Sc3cc(Cl)cc(Cl)c3)c(CCC(N)=O)[nH]c2c1
83 | 114 to 117 °C | CCC(CC)OC(=O)N1CCC(c2nc3cc(-c4ccc(-n5cnnn5)cc4F)ccc3o2)CC1
84 | 210 °C | O=C(O)c1cc(NC(C(=O)O)c2ccccc2Cl)c(Cl)cc1Cl (stereo not drawn)
85 | 197 °C | COC(=O)C1=C(C)NN=C(C(=O)N(C)Cc2ccccc2)C1c1ccccc1C(F)(F)F (stereo not drawn)
86 | 164 to 165 °C | CC(C)(C)c1ccc(C(=O)Nc2cc(Cl)c(N)cc2O)cc1
87 | 211 to 212 °C | Cc1nc(-c2ccc(Cl)cc2)c(CCC(=O)O)o1
88 | 79.8 °C | C=CCOc1cc(-n2ncc(C(F)(F)F)c(C)c2=O)c(F)cc1Cl
89 | 106 to 108 °C | CC(=O)N1CCCC2=C1CCc1cc(Cl)ccc12
90 | 114 to 116 °C | COc1ccc(NS(=O)(=O)c2cc(C)c3cc(C(C)C)ccc(C)c2-3)c(OC)c1
91 | 225 °C | Cc1cc(Cl)c([N+](=O)[O-])c(=O)[nH]1
92 | 107 to 109 °C | CCCC(=O)c1cnc2ccccc2c1Nc1ccccc1C
93 | 113 to 115 °C | COC(=O)Cc1cc2c(c([N+](=O)[O-])c1)NCC2
94 | 140 °C | CCOc1ccc2c(c1)n(C1CCCC1)c(=O)n2Cc1ccc(NC(=O)N(CC)CC)cc1OC
95 | 189 to 191 °C | C#CCN(c1ccc(C(=O)NC(CCc2nnn[nH]2)C(=O)O)nc1)C1CCc2cc3nc(C)[nH]c(=O)c3cc21 (mixture of isomers)
96 | 227 to 231 °C | CCC(C)(C)Nc1c(NCc2c(C)cccc2C)c(=O)c1=O
97 | 196 to 197 °C | Cc1cccc(C(=O)Nc2c[nH]nc2C(=O)NCCCO)n1
98 | 255 to 258 °C | Cc1nc2c(N)cc(S(=O)(=O)N(C)C)cc2n1C
